This note sets out measurements from patent US5466677A, “Dinucleoside phosphinates and their pharmaceutical compositions” (Ciba-Geigy Corporation, priority 1993, dated 1995).

For data set [1], the system named is herpes simplex virus type 1 (HSV-1) (strain 17i). Put plainly: plaque-reduction assay, HSV-1 in Vero cells. The following applies: Human alphaherpesvirus 1, 2 or 3 days. It counts as cell-based. Here is the method: (§1) Compounds prepared in some of the previous Examples are tested for antiviral activity against herpes simplex virus type 1 (HSV-1) (strain 17i) and human cytomegalovirus (HCMV) (strain AD 169) in vitro. Aqueous solutions of the compounds are prepared at concentrations between 10 mM and 50 mM. The solutions are stored at -70° C. after preparation and thawed prior to use in the antiviral assays. After thawing, the solutions are diluted to the appropriate concentration in the cell-culturemedium without prior filtration.
(§2) In a procedure similar to that described by Tyros et al, J. Antimicrob. Chemother., 8, 65-72 (1981), cell monolayers are infected with 20-200 plaque forming units and after virus adsorption the inoculum is replaced by maintenance medium containing different concentrations of the compound under investigation. Virus spread is prevented by the incorporation of 0.5% low gelling temperature agarose. At the end of a set period (2 or 3 days for HSV and 7 to 10 days for HCMV) monolayers are fixed, stained with methylene blue and plaque numbers determined.

Data set [2] has as its system human cytomegalovirus (HCMV) (strain AD 169). The data set can be described thus: plaque-reduction assay, HCMV in human embryonic fibroblasts. Format: cell-based. The note with it: Human betaherpesvirus 5, Fibroblast; HCMV strain AD 169, human embryonic fibroblasts, 7 to 10 days. The protocol: as §1, §2
Data set [3] concerns complementary RNA sequences. Format: binding. The following applies: for Tm: pH 7; for ΔTm/mod: pH 7.0.

Take `CCOP(=O)(CC[C@H]1O[C@@H](n2cc(C)c(=O)[nH]c2=O)C[C@@H]1OC(=O)c1ccccc1)C[C@H]1C[C@H](n2cc(C)c(=O)[nH]c2=O)O[C@@H]1CO[Si](c1ccccc1)(c1ccccc1)C(C)(C)C` (stereo partly drawn) [Compound 13]: the IC50 in data set [1] lay within 5 to 50 µM; in data set [2], 1 to 10 µM.
For `CCOP(=O)(CC[C@H]1O[C@@H](n2cc(C)c(=O)[nH]c2=O)C[C@@H]1O)C[C@H]1C[C@H](n2cc(C)c(=O)[nH]c2=O)O[C@@H]1CO[Si](c1ccccc1)(c1ccccc1)C(C)(C)C` (stereo partly drawn) [Compound 14], in that order: 20 to 200 µM and over 200 µM.
For `CCOP(=O)(CC[C@H]1O[C@@H](n2cc(C)c(=O)[nH]c2=O)C[C@@H]1OC(=O)c1ccccc1)C[C@H]1C[C@H](n2cc(C)c(=O)[nH]c2=O)O[C@@H]1CO` (stereo partly drawn) [Compound 15], in that order: over 5 µM and over 2 µM.
As for “Example 87: TTT T*TC TCT CTC TCT, T*T unit derived from Compound 81 (hydrolysed) (TTTTTCTCTCTCTCT; T*T modified dimer unit from Compound 81 (hydrolysed), chemistry not fully specified)”, in data set [3], the Tm came to 45.7 °C and the ΔTm/mod was -2.8 °C.
Consider “Example 88: TTT T*TC TCT CTC TCT, T*T unit derived from Compound 81 (TTTTTCTCTCTCTCT; one T*T dimer with modified linkage from Compound 81, further chemistry not given here)”, for which, in data set [3], the Tm is 46.8 °C and the ΔTm/mod is -2.2 °C.
Turning to “Example 89: TTT T*TC TCT CTC TCT, T*T unit derived from Compound 81A (TTTTTCTCTCTCTCT; one T*T dimer with modified linkage from Compound 81A, further chemistry not given here)”, in data set [3], the Tm came to 45.7 °C and the ΔTm/mod is -3.3 °C.
“Example 90: TTT T*TC TCT CTC TCT, T*T unit derived from Compound 81B (TTTTTCTCTCTCTCT; one T*T dimer with modified linkage from Compound 81B, further chemistry not given here)”: in data set [3], the Tm is 47.2 °C and the ΔTm/mod is -1.3 °C.
“Example 95: CTC GTA CT*T T*TC CGG TCC, T*T units derived from Compound 81 (hydrolysed) (CTCGTACTTTTCCGGTCC; two T*T dimers with modified linkage from hydrolysed Compound 81, further chemistry not given here)”: in data set [3], the Tm is 58.2 °C and the ΔTm/mod was -1.6 °C.
“Example 96: CTC GTA CT*T T*TC CGG TCC, T*T units derived from Compound 81 (CTCGTACTTTTCCGGTCC; T*T modified units from Compound 81, chemistry not fully specified)”: in data set [3], the Tm is 58.5 °C and the ΔTm/mod is -1.5 °C.
For “Example 97: CTC GTA CT*T T*TC CGG TCC, T*T units derived from Compound 81A (CTCGTACTTTTCCGGTCC; T*T modified units from Compound 81A, chemistry not fully specified)”, in that order: 57.9 °C and -1.8 °C.
For “Example 98: CTC GTA CT*T T*TC CGG TCC, T*T units derived from Compound 81B (CTCGTACTTTTCCGGTCC; T*T modified units from Compound 81B, chemistry not fully specified)”, in data set [3], the Tm amounted to 58.8 °C and the ΔTm/mod is -1.3 °C.
For “Example 99: GCG T*TT *TT*T T*TT *TGC G, T*T indicating a unit derived from Compound 81 (hydrolysed) (GCGTTTTTTTTTTGCG; several T*T modified linkages from hydrolysed Compound 81, further chemistry not given here)”, in that order: 39.6 °C and -1.8 °C.
